Earlier results on 1 compound are cited in US20260240156A1, “OIL-BASED DISPERSION COMPOSITIONS OF SOLID PARTICULATE HYGROSCOPIC OR WATER-SOLUBLE PESTICIDES” (priority 2023, published 2026).

For the data set the following is noted: in water compared to non-aqueous systems.

As to `CC1=NNC(=O)N(/N=C/c2cccnc2)C1` [Pymetrozine, 6-methyl-4-[(E)-(pyridin-3ylmethylene)amino]-4,5-dihydro-2H-[1,2,4]-triazin-3-one], the Photodegradation result was “significantly faster in water compared to non-aqueous systems”.
